Experimental data: US20230365592A1 (Agios Pharmaceuticals, Inc., priority 2022, published 2023)

Biological target: T1, human PAH with the R408W mutation (Homo sapiens, UniProt P00439, R408W)
T1 construct: expressed in transfected cells
T1 sequence (P00439 1-452 R408W): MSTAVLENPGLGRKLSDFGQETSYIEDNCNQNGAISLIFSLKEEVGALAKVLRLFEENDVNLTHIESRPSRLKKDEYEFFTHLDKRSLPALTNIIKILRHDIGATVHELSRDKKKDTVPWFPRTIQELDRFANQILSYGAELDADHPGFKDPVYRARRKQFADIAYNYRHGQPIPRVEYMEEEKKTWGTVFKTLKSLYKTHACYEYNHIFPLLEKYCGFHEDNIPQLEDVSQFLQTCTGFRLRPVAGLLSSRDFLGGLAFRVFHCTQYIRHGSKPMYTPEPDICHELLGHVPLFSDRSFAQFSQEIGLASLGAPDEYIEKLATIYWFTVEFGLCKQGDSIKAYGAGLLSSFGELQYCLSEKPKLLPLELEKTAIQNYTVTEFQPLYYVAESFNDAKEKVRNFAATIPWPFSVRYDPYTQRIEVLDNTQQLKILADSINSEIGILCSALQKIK
Assay: Cell Based Phenylalanine Flux Assay;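 also: after compound treatment, cells received sepiapterin plus isotope-labelled Phenylalanine for 4 hours, then labelled Tyrosine in the medium was quantified, 10-point 2-fold dilution series run in duplicate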
Details: A375 cells expressing human PAH R408W; 24 hrs compound incubation; 13C-Tyrosine by LC-MS; average where tested multiple times; read-out: AC50

`CCc1cccn2nc([C@H]3c4nc[nH]c4CCN3C(=O)c3nnc(-c4ccn(C)n4)o3)cc12` [Example 1926, (R)-(4-(4-ethylpyrazolo[1,5-a]pyridin-2-yl)-1,4,6,7-tetrahydro-5H-imidazo[4,5-c]pyridin-5-yl)(5-(1-methyl-1H-pyrazol-3-yl)-1,3,4-oxadiazol-2-yl)methanone] and `CC(C)c1cccn2nc([C@H]3c4nc[nH]c4CCN3C(=O)c3nnc(-c4ccn(C)n4)o3)cc12` [Example 1950, (R)-(4-(4-isopropylpyrazolo[1,5-a]pyridin-2-yl)-1,4,6,7-tetrahydro-5H-imidazo[4,5-c]pyridin-5-yl)(5-(1-methyl-1H-pyrazol-3-yl)-1,3,4-oxadiazol-2-yl)methanone] cannot be ordered by AC50: > 5 µM for the first, > 5 µM for the second.

First: O=C(c1nnc(-c2cnn(C(F)(F)F)c2)o1)N1CCc2[nH]cnc2[C@H]1c1cc2c(C3CC3)cccn2n1 [Example 1928, (S)-(4-(4-cyclopropylpyrazolo[1,5-a]pyridin-2-yl)-1,4,6,7-tetrahydro-5H-imidazo[4,5-c]pyridin-5-yl)(5-(1-(trifluoromethyl)-1H-pyrazol-4-yl)-1,3,4-oxadiazol-2-yl)methanone]
Second: CC(C)c1cccn2nc([C@@H]3c4nc[nH]c4CCN3C(=O)c3nnc(-c4cnn(C(F)(F)F)c4)o3)cc12 [Example 1946, (S)-(4-(4-isopropylpyrazolo[1,5-a]pyridin-2-yl)-1,4,6,7-tetrahydro-5H-imidazo[4,5-c]pyridin-5-yl)(5-(1-(trifluoromethyl)-1H-pyrazol-4-yl)-1,3,4-oxadiazol-2-yl)methanone]
The AC50 of the first is higher: 0.5 to 1 µM for the first, < 0.5 µM for the second.

Compared with `O=C(c1nnc(-c2ccn(C(F)F)n2)o1)N1CCc2[nH]cnc2[C@H]1c1cc2c(C3CC3)cccn2n1` [Example 1930, (S)-(4-(4-cyclopropylpyrazolo[1,5-a]pyridin-2-yl)-1,4,6,7-tetrahydro-5H-imidazo[4,5-c]pyridin-5-yl)(5-(1-(difluoromethyl)-1H-pyrazol-3-yl)-1,3,4-oxadiazol-2-yl)methanone], `O=C(c1nnc(-c2ccn(C(F)F)n2)o1)N1CCc2[nH]cnc2[C@@H]1c1cc2c(C3CC3)cccn2n1` [Example 1931, (R)-(4-(4-cyclopropylpyrazolo[1,5-a]pyridin-2-yl)-1,4,6,7-tetrahydro-5H-imidazo[4,5-c]pyridin-5-yl)(5-(1-(difluoromethyl)-1H-pyrazol-3-yl)-1,3,4-oxadiazol-2-yl)methanone] is higher in AC50: < 0.5 µM for the first, > 5 µM for the second.

Compared with `Cc1cc(-c2nnc(C(=O)N3CCc4[nH]cnc4[C@@H]3c3cc4c(C5CC5)cccn4n3)o2)nn1C` [Example 1932, (R)-(4-(4-cyclopropylpyrazolo[1,5-a]pyridin-2-yl)-1,4,6,7-tetrahydro-5H-imidazo[4,5-c]pyridin-5-yl)(5-(1,5-dimethyl-1H-pyrazol-3-yl)-1,3,4-oxadiazol-2-yl)methanone], `Cc1cc(-c2nnc(C(=O)N3CCc4[nH]cnc4[C@H]3c3cc4c(C5CC5)cccn4n3)o2)nn1C` [Example 1933, (S)-(4-(4-cyclopropylpyrazolo[1,5-a]pyridin-2-yl)-1,4,6,7-tetrahydro-5H-imidazo[4,5-c]pyridin-5-yl)(5-(1,5-dimethyl-1H-pyrazol-3-yl)-1,3,4-oxadiazol-2-yl)methanone] is lower in AC50: > 5 µM for the first, 0.5 to 1 µM for the second.

`CC(C)c1cccn2nc([C@@H]3c4nc[nH]c4CCN3C(=O)c3nnc(-c4cnccn4)o3)cc12` [Example 1934, (S)-(4-(4-isopropylpyrazolo[1,5-a]pyridin-2-yl)-1,4,6,7-tetrahydro-5H-imidazo[4,5-c]pyridin-5-yl)(5-(pyrazin-2-yl)-1,3,4-oxadiazol-2-yl)methanone] and `CC(C)c1cccn2nc([C@@H]3c4nc[nH]c4CCN3C(=O)c3nnc(-c4ccn(C)n4)o3)cc12` [Example 1951, (S)-(4-(4-isopropylpyrazolo[1,5-a]pyridin-2-yl)-1,4,6,7-tetrahydro-5H-imidazo[4,5-c]pyridin-5-yl)(5-(1-methyl-1H-pyrazol-3-yl)-1,3,4-oxadiazol-2-yl)methanone] cannot be ordered by AC50: < 0.5 µM for the first, < 0.5 µM for the second.

Compared with `CC(C)c1cccn2nc([C@H]3c4nc[nH]c4CCN3C(=O)c3nnc(-c4cnn(C(F)F)c4)o3)cc12` [Example 1937, (R)-(5-(1-(difluoromethyl)-1H-pyrazol-4-yl)-1,3,4-oxadiazol-2-yl)(4-(4-isopropylpyrazolo[1,5-a]pyridin-2-yl)-1,4,6,7-tetrahydro-5H-imidazo[4,5-c]pyridin-5-yl)methanone], `Cc1cccn2nc([C@@H]3c4nc[nH]c4CCN3C(=O)c3cnc(-c4cnn(C)c4)o3)cc12` [Example 1960, (S)-(2-(1-methyl-1H-pyrazol-4-yl)oxazol-5-yl)(4-(4-methylpyrazolo[1,5-a]pyridin-2-yl)-1,4,6,7-tetrahydro-5H-imidazo[4,5-c]pyridin-5-yl)methanone] is lower in AC50: 1 to 5 µM for the first, 0.5 to 1 µM for the second.

Going from `Cc1cccn2nc([C@H]3c4nc[nH]c4CCN3c3ccc(C(F)(F)F)cn3)cc12` [Example 1940, (R)-4-(4-methylpyrazolo[1,5-a]pyridin-2-yl)-5-(5-(trifluoromethyl)pyridin-2-yl)-4,5,6,7-tetrahydro-1H-imidazo[4,5-c]pyridine] to `Cc1cccn2nc([C@@H]3c4nc[nH]c4CCN3c3ccc(C(F)(F)F)cn3)cc12` [Example 1941, (S)-4-(4-methylpyrazolo[1,5-a]pyridin-2-yl)-5-(5-(trifluoromethyl)pyridin-2-yl)-4,5,6,7-tetrahydro-1H-imidazo[4,5-c]pyridine], the AC50 falls from > 5 µM to < 0.5 µM.

First: Fc1cccn2nc([C@@H]3c4nc[nH]c4CCN3c3ccc(C(F)(F)F)cn3)cc12 [Example 1943, (S)-4-(4-fluoropyrazolo[1,5-a]pyridin-2-yl)-5-(5-(trifluoromethyl)pyridin-2-yl)-4,5,6,7-tetrahydro-1H-imidazo[4,5-c]pyridine]
Second: Fc1cccc(N2CCc3[nH]cnc3[C@@H]2c2cc3c(F)cccn3n2)n1 [Example 1954, (R)-4-(4-fluoropyrazolo[1,5-a]pyridin-2-yl)-5-(6-fluoropyridin-2-yl)-4,5,6,7-tetrahydro-1H-imidazo[4,5-c]pyridine]
The AC50 of the first is lower: < 0.5 µM for the first, 1 to 5 µM for the second.

First: Cc1cccn2nc([C@@H]3c4nc[nH]c4CCN3C(=O)c3ocnc3C3CC3)cc12 [Example 1944, (S)-(4-cyclopropyloxazol-5-yl)(4-(4-methylpyrazolo[1,5-a]pyridin-2-yl)-1,4,6,7-tetrahydro-5H-imidazo[4,5-c]pyridin-5-yl)methanone]
Second: Cc1cccn2nc([C@H]3c4nc[nH]c4CCN3C(=O)c3ocnc3C3CC3)cc12 [Example 1945, (R)-(4-cyclopropyloxazol-5-yl)(4-(4-methylpyrazolo[1,5-a]pyridin-2-yl)-1,4,6,7-tetrahydro-5H-imidazo[4,5-c]pyridin-5-yl)methanone]
The AC50 of the first is lower: < 0.5 µM for the first, 1 to 5 µM for the second.

First: Fc1cccc(N2CCc3[nH]cnc3[C@H]2c2cc3c(F)cccn3n2)n1 [Example 1955, (S)-4-(4-fluoropyrazolo[1,5-a]pyridin-2-yl)-5-(6-fluoropyridin-2-yl)-4,5,6,7-tetrahydro-1H-imidazo[4,5-c]pyridine]
Second: Cc1cccn2nc([C@@H]3c4nc[nH]c4CCN3C(=O)c3cnc(-c4ccccn4)o3)cc12 [Example 1964, (S)-(4-(4-methylpyrazolo[1,5-a]pyridin-2-yl)-1,4,6,7-tetrahydro-5H-imidazo[4,5-c]pyridin-5-yl)(2-(pyridin-2-yl)oxazol-5-yl)methanone]
The AC50 of the first is lower: < 0.5 µM for the first, 0.5 to 1 µM for the second.

First: CC(C)(F)c1ncc(C(=O)N2CCc3[nH]cnc3[C@H]2c2cc3ccccn3n2)o1 [Example 1957, (S)-(2-(2-fluoropropan-2-yl)oxazol-5-yl)(4-(pyrazolo[1,5-a]pyridin-2-yl)-1,4,6,7-tetrahydro-5H-imidazo[4,5-c]pyridin-5-yl)methanone]
Second: Cc1cccn2nc([C@H]3c4nc[nH]c4CCN3C(=O)c3cnc(-c4ccccn4)o3)cc12 [Example 1965, (R)-(4-(4-methylpyrazolo[1,5-a]pyridin-2-yl)-1,4,6,7-tetrahydro-5H-imidazo[4,5-c]pyridin-5-yl)(2-(pyridin-2-yl)oxazol-5-yl)methanone]
The AC50 of the first is lower: 0.5 to 1 µM for the first, > 5 µM for the second.

First: Cc1cccn2nc([C@H]3c4nc[nH]c4CCN3C(=O)c3cnc(-c4cnn(C)c4)o3)cc12 [Example 1961, (R)-(2-(1-methyl-1H-pyrazol-4-yl)oxazol-5-yl)(4-(4-methylpyrazolo[1,5-a]pyridin-2-yl)-1,4,6,7-tetrahydro-5H-imidazo[4,5-c]pyridin-5-yl)methanone]
Second: Cc1cccn2nc([C@@H]3c4nc[nH]c4CCN3C(=O)c3cnc(-c4cnn(C)c4C)o3)cc12 [Example 1962, (S)-(2-(1,5-dimethyl-1H-pyrazol-4-yl)oxazol-5-yl)(4-(4-methylpyrazolo[1,5-a]pyridin-2-yl)-1,4,6,7-tetrahydro-5H-imidazo[4,5-c]pyridin-5-yl)methanone]
The AC50 of the first is higher: > 5 µM for the first, 0.5 to 1 µM for the second.

First: O=C(c1nnc(-c2ccccn2)s1)N1CCc2[nH]cnc2[C@H]1c1cc2ccccn2n1 [Example 1966, (S)-(4-(pyrazolo[1,5-a]pyridin-2-yl)-1,4,6,7-tetrahydro-5H-imidazo[4,5-c]pyridin-5-yl)(5-(pyridin-2-yl)-1,3,4-thiadiazol-2-yl)methanone]
Second: O=C(c1nnc(-c2ccccn2)s1)N1CCc2[nH]cnc2[C@@H]1c1cc2ccccn2n1 [Example 1967, (R)-(4-(pyrazolo[1,5-a]pyridin-2-yl)-1,4,6,7-tetrahydro-5H-imidazo[4,5-c]pyridin-5-yl)(5-(pyridin-2-yl)-1,3,4-thiadiazol-2-yl)methanone]
The AC50 of the first is lower: < 0.5 µM for the first, > 5 µM for the second.
